Results published in US11168067B2, “Substituted quinazoline compound having blood-brain barrier penetration capability” (WEISHANG (SHANGHAI) BIO-PHARMACEUTICAL CO., LTD., priority 2016, dated 2021).

Legend:
[1] = Blood-brain barrier penetration (brain tissue to plasma concentration ratio); assay type: in vivo; settings: rat, rats, four hours after dosing
Method: To determine whether the compound was able to cross the blood-brain barrier (BBB), the rats were administered with the test compound. Four hours after dosing, rats were sacrificed, blood and brain tissue were collected and the concentration of the test compound was analyzed. Brain permeation is defined as the ratio of the concentration of the compound in the brain tissue to the concentration in the plasma. P-glycoprotein is the blood-brain barrier efflux protein, […].

PC-9 tumor cell = experiment: CellTiter-Glo (CTG) cell viability assay, PC-9 tumor cell growth inhibition; settings: for IC50: Homo sapiens, PC-9, 72 h, read-out: PC-9 tumor cell growth inhibition IC50; for inhibiting PC-9 tumor cell growth compared with Iressa: PC-9 cells, cell viability assay
Method: Cell viability of tumor cells with EGFR-activated mutations (exon 19-deficient Exon 19 Del) protein was detected using CellTiter-Glo (CTG) assay; about 5000 cells were seeded in each blank 96-well plate, 16 hours later, add the proportionally diluted compound, equilibrated at room temperature for 72 hours after the addition of the drug for 30 minutes. 100 μl of CellTiter-Glo reagent was added to each well and the orbital shaker was mixed for 2 minutes to induce cell lysis. The plate was incubated at room temperature for 10 minutes to stabilize the luminescence signal. The TECAN Infinite M1000 Pro instrument records the luminescence signal.

| SMILES | Kp at 4 h [1] | IC50 (PC-9 tumor cell) [nM] | inhibiting PC-9 tumor cell growth compared with Iressa (PC-9 tumor cell) |
| --- | --- | --- | --- |
| [2H]C([2H])([2H])Oc1cc2ncnc(Nc3cccc(Cl)c3F)c2cc1O[C@@H]1CCN(C2COC2)CC1(F)F [Compound 15, (R)—N-(3-chloro-2-fluorophenyl)-6-((3,3-difluoro-1-(oxetan-3-yl)piperidin-4-yl)oxy)-7-(methoxy-d3)quinazolin-4-amine] | > 0.3 | < 1 | – |
| [2H]C([2H])([2H])Oc1cc2ncnc(Nc3cccc(Cl)c3F)c2cc1O[C@H]1CCN(C2COC2)CC1(F)F [Compound 17, (S)—N-(3-chloro-2-fluorophenyl)-6-((3,3-difluoro-1-(oxetan-3-yl)piperidin-4-yl)oxy)-7-(methoxy-d3)quinazolin-4-amine] | > 0.3 | < 1 | – |
| [2H]C([2H])([2H])Oc1cc2ncnc(Nc3cccc(C#C)c3F)c2cc1O[C@@H]1CCN(C2COC2)CC1(F)F [Compound 16, (R)-6-((3,3-difluoro-1-(oxetan-3-yl)piperidin-4-yl)oxy)-N-(3-ethynyl-2-fluorophenyl)-7-(methoxy-d3)quinazolin-4-amine] | > 0.3 | – | – |
| C#Cc1cccc(Nc2ncnc3cc(OC)c(O[C@@H]4CCN(C)CC4(F)F)cc23)c1F [Compound 20, (R)-6-((3,3-difluoro-1-methylpiperidin-4-yl)oxy)-N-(3-ethynyl-2-fluorophenyl)-7-methoxyquinazolin-4-amine] | > 0.3 | – | – |
| [2H]C([2H])([2H])Oc1cc2ncnc(Nc3cccc(C#C)c3F)c2cc1OC1CCN(C2COC2)CC1(F)F (racemic) [Compound 4, (R/S)-6-((3,3-difluoro-1-(oxetan-3-yl)piperidin-4-yl)oxy)-N-(3-ethynyl-2-fluorophenyl)-7-(methoxy-d3)quinazolin-4-amine] | > 0.3 | – | – |
| C#Cc1cccc(Nc2ncnc3cc(OC)c(OC4CCN(C)CC4(F)F)cc23)c1F (racemic) [Compound 6, (R/S)-6-((3,3-difluoro-1-methylpiperidin-4-yl)oxy)-N-(3-ethynyl-2-fluorophenyl)-7-methoxyquinazolin-4-amine] | > 0.3 | – | – |
| C#Cc1c(F)ccc(Nc2ncnc3cc(OC)c(OC4CCN(C)CC4(F)F)cc23)c1F (racemic) [Compound 5, (R/S)-6-((3,3-difluoro-1-methylpiperidin-4-yl)oxy)-N-(3-ethynyl-2,4-difluorophenyl)-7-methoxyquinazolin-4-amine] | > 0.3 | – | – |
| [2H]C([2H])([2H])Oc1cc2ncnc(Nc3cccc(Cl)c3F)c2cc1OC1CCN(C2COC2)CC1(F)F (racemic) [Compound 3, (R/S)—N-(3-chloro-2-fluorophenyl)-6-((3,3-difluoro-1-(oxetan-3-yl)piperidin-4-yl)oxy)-7-(methoxy-d3)quinazolin-4-amine] | > 0.3 | < 1 | – |
| [2H]C([2H])([2H])Oc1cc2ncnc(Nc3cccc(C#C)c3F)c2cc1O[C@H]1CCN(C2COC2)CC1(F)F [Compound 18, (S)-6-((3,3-difluoro-1-(oxetan-3-yl)piperidin-4-yl)oxy)-N-(3-ethynyl-2-fluorophenyl)-7-(methoxy-d3)quinazolin-4-amine] | > 0.3 | – | – |
| C#Cc1c(F)ccc(Nc2ncnc3cc(OC)c(O[C@H]4CCN(C)CC4(F)F)cc23)c1F [Compound 21, (S)-6-((3,3-difluoro-1-methylpiperidin-4-yl)oxy)-N-(3-ethynyl-2,4-difluorophenyl)-7-methoxyquinazolin-4-amine] | > 0.3 | – | – |
| C#Cc1cccc(Nc2ncnc3cc(OC)c(O[C@@H]4CCN(C5COC5)CC4(F)F)cc23)c1F [Compound 12, (R)-6-((3,3-difluoro-1-(oxetan-3-yl)piperidin-4-yl)oxy)-N-(3-ethynyl-2-fluorophenyl)-7-methoxyquinazolin-4-amine] | > 0.3 | – | – |
| C#Cc1c(F)ccc(Nc2ncnc3cc(OC)c(O[C@@H]4CCN(C)CC4(F)F)cc23)c1F [Compound 19, (R)-6-((3,3-difluoro-1-methylpiperidin-4-yl)oxy)-N-(3-ethynyl-2,4-difluorophenyl)-7-methoxyquinazolin-4-amine] | > 0.3 | – | – |
| C#Cc1cccc(Nc2ncnc3cc(OC)c(O[C@H]4CCN(C)CC4(F)F)cc23)c1F [Compound 22, (S)-6-((3,3-difluoro-1-methylpiperidin-4-yl)oxy)-N-(3-ethynyl-2-fluorophenyl)-7-methoxyquinazolin-4-amine] | > 0.3 | – | – |

Continued, in another order:

| Kp at 4 h [1] | IC50 (PC-9 tumor cell) [nM] | SMILES | inhibiting PC-9 tumor cell growth compared with Iressa (PC-9 tumor cell) |
| --- | --- | --- | --- |
| > 0.3 | – | C#Cc1c(F)ccc(Nc2ncnc3cc(OC)c(OC4CCN(C5COC5)CC4(F)F)cc23)c1F (racemic) [Compound 8, (R/S)-6-((3,3-difluoro-1-(oxetan-3-yl)piperidin-4-yl)oxy)-N-(3-ethynyl-2,4-difluorophenyl)-7-methoxyquinazolin-4-amine] | – |
| > 0.3 | < 1 | COc1cc2ncnc(Nc3cccc(Cl)c3F)c2cc1O[C@@H]1CCN(C2COC2)CC1(F)F [Compound 11, (R)—N-(3-chloro-2-fluorophenyl)-6-((3,3-difluoro-1-(oxetan-3-yl)piperidin-4-yl)oxy)-7-methoxyquinazolin-4-amine] | – |
| > 0.3 | < 1 | COc1cc2ncnc(Nc3cccc(Cl)c3F)c2cc1OC1CCN(C2COC2)CC1(F)F (racemic) [Compound 1, (R/S)—N-(3-chloro-2-fluorophenyl)-6-((3,3-difluoro-1-(oxetan-3-yl)piperidin-4-yl)oxy)-7-methoxyquinazolin-4-amine] | more effective than Iressa |
| > 0.3 | < 1 | COc1cc2ncnc(Nc3ccc(F)c(Cl)c3F)c2cc1O[C@@H]1CCN(C2COC2)CC1(F)F [Compound 23, (R)—N-(3-chloro-2,4-difluorophenyl)-6-((3,3-difluoro-1-(oxetan-3-yl)piperidin-4-yl)oxy)-7-methoxyquinazolin-4-amine] | – |
| > 0.3 | < 1 | [2H]C([2H])([2H])Oc1cc2ncnc(Nc3ccc(F)c(Cl)c3F)c2cc1O[C@H]1CCN(C2COC2)CC1(F)F [Compound 29, (S)—N-(3-chloro-2,4-difluorophenyl)-6-((3,3-difluoro-1-(oxetan-3-yl)piperidin-4-yl)oxy)-7-(methoxy-d3)quinazolin-4-amine] | – |
| > 0.3 | < 1 | COc1cc2ncnc(Nc3cccc(Cl)c3F)c2cc1O[C@H]1CCN(C2COC2)CC1(F)F [Compound 13, (S)—N-(3-chloro-2-fluorophenyl)-6-((3,3-difluoro-1-(oxetan-3-yl)piperidin-4-yl)oxy)-7-methoxyquinazolin-4-amine] | – |
| > 0.3 | < 1 | [2H]C([2H])([2H])Oc1cc2ncnc(Nc3ccc(F)c(Cl)c3F)c2cc1O[C@@H]1CCN(C2COC2)CC1(F)F [Compound 27, (R)—N-(3-chloro-2,4-difluorophenyl)-6-((3,3-difluoro-1-(oxetan-3-yl)piperidin-4-yl)oxy)-7-(methoxy-d3)quinazolin-4-amine] | – |
| > 0.3 | < 1 | [2H]C([2H])([2H])Oc1cc2ncnc(Nc3ccc(F)c(Cl)c3F)c2cc1OC1CCN(C2COC2)CC1(F)F (racemic) [Compound 9, (R/S)—N-(3-chloro-2,4-difluorophenyl)-6-((3,3-difluoro-1-(oxetan-3-yl)piperidin-4-yl)oxy)-7-(methoxy-d3)quinazolin-4-amine] | more effective than Iressa |
| > 0.3 | – | C#Cc1c(F)ccc(Nc2ncnc3cc(OC)c(O[C@@H]4CCN(C5COC5)CC4(F)F)cc23)c1F [Compound 24, (R)-6-((3,3-difluoro-1-(oxetan-3-yl)piperidin-4-yl)oxy)-N-(3-ethynyl-2,4-difluorophenyl)-7-methoxyquinazolin-4-amine] | – |
| > 0.3 | < 1 | COc1cc2ncnc(Nc3ccc(F)c(Cl)c3F)c2cc1OC1CCN(C2COC2)CC1(F)F (racemic) [Compound 7, (R/S)—N-(3-chloro-2,4-difluorophenyl)-6-((3,3-difluoro-1-(oxetan-3-yl)piperidin-4-yl)oxy)-7-methoxyquinazolin-4-amine] | more effective than Iressa |
| > 0.3 | – | C#Cc1c(F)ccc(Nc2ncnc3cc(OC)c(O[C@H]4CCN(C5COC5)CC4(F)F)cc23)c1F [Compound 26, (S)-6-((3,3-difluoro-1-(oxetan-3-yl)piperidin-4-yl)oxy)-N-(3-ethynyl-2,4-difluorophenyl)-7-methoxyquinazolin-4-amine] | – |
| > 0.3 | – | [2H]C([2H])([2H])Oc1cc2ncnc(Nc3ccc(F)c(C#C)c3F)c2cc1OC1CCN(C2COC2)CC1(F)F (racemic) [Compound 10, (R/S)-6-((3,3-difluoro-1-(oxetan-3-yl)piperidin-4-yl)oxy)-N-(3-ethynyl-2,4-difluorophenyl)-7-(methoxy-d3)quinazolin-4-amine] | – |
| > 0.3 | – | C#Cc1cccc(Nc2ncnc3cc(OC)c(OC4CCN(C5COC5)CC4(F)F)cc23)c1F (racemic) [Compound 2, (R/S)-6-((3,3-difluoro-1-(oxetan-3-yl)piperidin-4-yl)oxy)-N-(3-ethynyl-2-fluorophenyl)-7-methoxyquinazolin-4-amine] | – |
| > 0.3 | – | [2H]C([2H])([2H])Oc1cc2ncnc(Nc3ccc(F)c(C#C)c3F)c2cc1O[C@@H]1CCN(C2COC2)CC1(F)F [Compound 28, (R)-6-((3,3-difluoro-1-(oxetan-3-yl)piperidin-4-yl)oxy)-N-(3-ethynyl-2,4-difluorophenyl)-7-(methoxy-d3)quinazolin-4-amine] | – |
| > 0.3 | – | [2H]C([2H])([2H])Oc1cc2ncnc(Nc3ccc(F)c(C#C)c3F)c2cc1O[C@H]1CCN(C2COC2)CC1(F)F [Compound 30, (S)-6-((3,3-difluoro-1-(oxetan-3-yl)piperidin-4-yl)oxy)-N-(3-ethynyl-2,4-difluorophenyl)-7-(methoxy-d3)quinazolin-4-amine] | – |
| > 0.3 | – | C#Cc1cccc(Nc2ncnc3cc(OC)c(O[C@H]4CCN(C5COC5)CC4(F)F)cc23)c1F [Compound 14, (S)-6-((3,3-difluoro-1-(oxetan-3-yl)piperidin-4-yl)oxy)-N-(3-ethynyl-2-fluorophenyl)-7-methoxyquinazolin-4-amine] | – |
